According to US20250066350A1, “AROMATIC HETEROCYCLE-SUBSTITUTED COMPOUNDS, AND PREPARATION METHOD THEREFOR AND USE THEREOF” (Innovstone Therapeutics Limited, priority 2021, published 2025):
Where two headings read alike, the source gives them in different places.

Legend:
[1] = system: LoVo cells; assay: LoVo cell proliferation experiment (CellTiter-Glo, intracellular ATP); assay type: cell-based; conditions: LoVo human colon cancer cells, 4 days, read-out: IC50 for inhibition of LoVo cell proliferation
Description: The following method is used to evaluate the inhibitory effect of the compounds of the present invention on LoVo cell proliferation according to the IC50 values by means of detecting the intracellular ATP content. The experimental method is briefly described as follows:
1. LoVo, human colon cancer tumor cells (Co-bioer, CBP60032)
LoVo cells were cultured in F-12K medium containing 10% FBS and passaged 2 to 3 times a week at a split ratio of 1:3 or 1:5. During passage, the cells were trypsinized and transferred to a centrifuge tube. The tube was centrifuged at 1000 rpm for 5 minutes, the supernatant medium was discarded, and fresh medium was added to resuspend the cells. 100 μL of cell suspension at a density of 1.5×10^4 cells/mL was added to a 96-well cell culture plate, and 100 μL of complete medium only was added to the periphery wells of the 96-well plate. The culture plate was incubated in an incubator for 24 hours (37° C., 5% CO2).
The sample to be tested was diluted to 1 mM with DMSO, diluted 3-fold serially to 8 concentrations, and prepared to 200× dilution with cell culture medium. Blank and control wells were set. 5 μL of the solution containing the compound to be tested prepared in gradient concentrations was added to 95 μL of fresh medium. 100 μL of 1× culture medium containing the compound was added to the culture plate. The culture plate was incubated in an incubator for 4 days (37° C., 5% CO2). 50 μL of CellTiter-Glo reagent was added to each well of the 96-well cell culture plate, and the plate was placed at room temperature in the dark for 5-10 min. The chemiluminescent signal values were read in PHERAstar, and data were processed using GraphPad software.
The inhibitory effect of the compounds of the present invention on LoVo cell proliferation can be determined by the test described above, and the measured IC50 values are shown in Table 2.

[2] = system: SNU-601 cells; assay: SNU-601 cell proliferation experiment (CellTiter-Glo, intracellular ATP); assay type: cell-based; conditions: SNU-601 human gastric cancer cells, 5 days, read-out: IC50 for inhibition of SNU-601 cell proliferation
Description: The following method is used to evaluate the inhibitory effect of the compounds of the present disclosure on SNU-601 cell proliferation according to the IC50 values by means of detecting the intracellular ATP content. The experimental method is briefly described as follows:
1. SNU-601, human gastric cancer tumor cells (Co-bioer, CBP60507)
SNU-601 cells were cultured in RPMI 1640 medium containing 10% FBS and passaged 2 to 3 times a week at a split ratio of 1:5 or 1:10. During passage, the cells were trypsinized and transferred to a centrifuge tube. The tube was centrifuged at 1000 rpm for 5 minutes, the supernatant medium was discarded, and fresh medium was added to resuspend the cells. 195 μL of cell suspension at a density of 5.128×10^3 cells/mL was added to a 96-well cell culture plate, and 200 μL of complete medium only was added to the periphery wells of the 96-well plate. The culture plate was incubated in an incubator for 24 hours (37° C., 5% CO2).
The sample to be tested was diluted to 2 mM with DMSO, diluted 3-fold serially to 10 concentrations. Blank and control wells were set. 10 μL of the solution containing the compound to be tested prepared in gradient concentrations was added to 50 μL of fresh medium. 5 μL of the above culture medium solution containing the compound was added to the culture plate. The culture plate was incubated in an incubator for 5 days (37° C., 5% CO2). 50 μL of CellTiter-Glo reagent was added to each well of the 96-well cell culture plate after discarding 100 μL/well, and the plate was shaken at room temperature in the dark for 10 min. The chemiluminescent signal values were read in PHERAstar, and data were processed using GraphPad software.
The inhibitory effect of the compounds of the present invention on SNU-601 cell proliferation can be determined by the test described above, and the measured IC50 values are shown in Table 3.

[3] = target: ATR enzyme (Homo sapiens (Human), UniProt Q13535); assay: Inhibitory effect on ATR enzyme (HTRF, phospho-P53); assay type: biochemical; conditions: 90 minutes incubation, 150 nM ATP final; read-out: IC50 for ATR enzyme inhibition
Description: Test Example 1. Inhibitory Effect of Compounds of the Present Invention on ATR Enzyme
The following method is used to determine the inhibitory effect of the compounds of the present invention on the ATR enzyme. The experimental method is briefly described as follows:
1. ATR enzyme (Eurofins Pharma Discovery Services, 14-953M)
2. GST-tagged P53 protein (Eurofins Pharma Discovery Services, 14-952M)
15 nM ATR enzyme, 80 nM P53 protein, 300 nM ATP (the final concentrations were 40 nM and 150 nM, respectively), and small molecule compounds of various concentrations (the final concentrations (nM) of the ten points were 2985.0, 895.5, 298.5, 110.56, 33.17, 11.06, 4.09, 1.23, 0.41 and 0.15, respectively, and the final dimethyl sulfoxide concentration was 0.498%) were mixed and incubated at room temperature for 90 minutes. 10 μL of 2× cocktail buffer was added to the mixture of ATR, compound and substrate in the assay plate (anti-phospho-p53-Eu and anti-GST-d2 were diluted in the assay buffer). The resulting mixture was centrifuged at 1000 rpm for 30 seconds, and incubated overnight at 4° C. in the dark (a total of 20 μl in each well). The FRET signal (endpoint) was measured in the Envision instrument (HTRF 665/612 ratio was calculated at 665 nm emission and 612 nm emission). Data were processed using GraphPad software.
The inhibitory activity of the compounds of the present invention on the ATR enzyme can be determined by the test described above, and the measured IC50 values are shown in Table 1.

Chain of ATR enzyme (Q13535 whole entry): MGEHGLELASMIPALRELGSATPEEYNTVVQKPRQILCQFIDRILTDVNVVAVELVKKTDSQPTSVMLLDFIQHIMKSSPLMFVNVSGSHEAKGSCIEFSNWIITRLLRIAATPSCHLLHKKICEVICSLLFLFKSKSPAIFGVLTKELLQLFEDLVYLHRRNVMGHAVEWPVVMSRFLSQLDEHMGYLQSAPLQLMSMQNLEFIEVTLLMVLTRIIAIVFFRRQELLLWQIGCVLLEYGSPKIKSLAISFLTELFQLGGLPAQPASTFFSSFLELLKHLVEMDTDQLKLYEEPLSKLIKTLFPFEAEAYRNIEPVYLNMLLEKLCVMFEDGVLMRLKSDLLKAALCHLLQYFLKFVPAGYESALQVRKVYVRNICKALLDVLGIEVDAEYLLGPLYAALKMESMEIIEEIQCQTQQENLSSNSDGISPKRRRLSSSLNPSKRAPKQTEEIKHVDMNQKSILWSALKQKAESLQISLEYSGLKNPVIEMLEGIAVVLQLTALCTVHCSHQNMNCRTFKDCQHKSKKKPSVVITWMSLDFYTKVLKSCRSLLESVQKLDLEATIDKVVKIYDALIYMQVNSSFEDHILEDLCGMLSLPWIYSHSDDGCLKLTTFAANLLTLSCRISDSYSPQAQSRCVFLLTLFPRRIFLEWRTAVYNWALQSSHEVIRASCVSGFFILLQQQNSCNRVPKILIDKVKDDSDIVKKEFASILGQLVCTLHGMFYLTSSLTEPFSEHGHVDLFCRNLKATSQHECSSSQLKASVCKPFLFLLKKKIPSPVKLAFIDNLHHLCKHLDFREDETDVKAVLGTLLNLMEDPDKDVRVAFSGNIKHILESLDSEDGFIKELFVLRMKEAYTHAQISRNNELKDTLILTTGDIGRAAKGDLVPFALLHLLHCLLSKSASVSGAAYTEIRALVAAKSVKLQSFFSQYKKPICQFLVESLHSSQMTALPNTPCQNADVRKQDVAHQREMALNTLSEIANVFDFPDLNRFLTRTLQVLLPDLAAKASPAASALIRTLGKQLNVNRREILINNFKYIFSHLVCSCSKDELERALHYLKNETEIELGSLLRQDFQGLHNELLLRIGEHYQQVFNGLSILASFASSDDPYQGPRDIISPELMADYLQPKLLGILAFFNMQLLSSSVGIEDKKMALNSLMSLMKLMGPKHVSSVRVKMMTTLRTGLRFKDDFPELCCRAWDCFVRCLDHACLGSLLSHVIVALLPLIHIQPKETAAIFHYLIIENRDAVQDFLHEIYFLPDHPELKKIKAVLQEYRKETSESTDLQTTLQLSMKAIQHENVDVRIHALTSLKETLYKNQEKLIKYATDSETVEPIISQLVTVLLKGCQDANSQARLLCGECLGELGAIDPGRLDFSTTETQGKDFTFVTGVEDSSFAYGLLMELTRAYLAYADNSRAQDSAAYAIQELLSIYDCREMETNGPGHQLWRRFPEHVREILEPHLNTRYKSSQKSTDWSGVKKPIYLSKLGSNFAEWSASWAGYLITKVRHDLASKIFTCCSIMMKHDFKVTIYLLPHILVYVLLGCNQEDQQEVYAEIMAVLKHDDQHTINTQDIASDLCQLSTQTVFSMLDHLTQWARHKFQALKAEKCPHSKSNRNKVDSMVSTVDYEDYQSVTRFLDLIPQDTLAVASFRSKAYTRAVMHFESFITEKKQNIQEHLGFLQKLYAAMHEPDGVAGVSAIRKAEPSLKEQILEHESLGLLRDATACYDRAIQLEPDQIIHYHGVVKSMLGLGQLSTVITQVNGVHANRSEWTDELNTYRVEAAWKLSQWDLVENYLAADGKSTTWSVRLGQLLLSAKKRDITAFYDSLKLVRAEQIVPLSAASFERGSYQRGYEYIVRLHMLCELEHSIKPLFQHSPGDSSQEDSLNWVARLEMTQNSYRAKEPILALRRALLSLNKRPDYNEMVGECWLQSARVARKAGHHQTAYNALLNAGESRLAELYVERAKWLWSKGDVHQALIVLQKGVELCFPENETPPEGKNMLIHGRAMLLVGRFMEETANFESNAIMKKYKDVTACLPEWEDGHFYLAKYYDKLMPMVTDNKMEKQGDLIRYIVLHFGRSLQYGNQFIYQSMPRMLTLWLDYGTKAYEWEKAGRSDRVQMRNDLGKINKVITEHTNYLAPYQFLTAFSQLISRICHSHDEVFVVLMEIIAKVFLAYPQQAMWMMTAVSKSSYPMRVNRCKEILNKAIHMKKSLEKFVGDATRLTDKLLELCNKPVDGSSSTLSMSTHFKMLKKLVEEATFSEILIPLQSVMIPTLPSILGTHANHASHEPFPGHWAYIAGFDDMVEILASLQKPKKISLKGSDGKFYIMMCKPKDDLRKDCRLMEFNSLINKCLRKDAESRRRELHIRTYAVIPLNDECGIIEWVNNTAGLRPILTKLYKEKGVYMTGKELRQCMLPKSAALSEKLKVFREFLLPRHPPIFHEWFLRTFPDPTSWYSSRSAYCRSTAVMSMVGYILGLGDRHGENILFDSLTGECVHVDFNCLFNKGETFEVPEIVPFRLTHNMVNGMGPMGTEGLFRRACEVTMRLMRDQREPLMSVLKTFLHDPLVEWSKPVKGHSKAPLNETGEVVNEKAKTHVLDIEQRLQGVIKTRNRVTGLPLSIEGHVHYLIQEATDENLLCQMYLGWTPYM
Chain of ATR enzyme (Q8WXE1 whole entry partner): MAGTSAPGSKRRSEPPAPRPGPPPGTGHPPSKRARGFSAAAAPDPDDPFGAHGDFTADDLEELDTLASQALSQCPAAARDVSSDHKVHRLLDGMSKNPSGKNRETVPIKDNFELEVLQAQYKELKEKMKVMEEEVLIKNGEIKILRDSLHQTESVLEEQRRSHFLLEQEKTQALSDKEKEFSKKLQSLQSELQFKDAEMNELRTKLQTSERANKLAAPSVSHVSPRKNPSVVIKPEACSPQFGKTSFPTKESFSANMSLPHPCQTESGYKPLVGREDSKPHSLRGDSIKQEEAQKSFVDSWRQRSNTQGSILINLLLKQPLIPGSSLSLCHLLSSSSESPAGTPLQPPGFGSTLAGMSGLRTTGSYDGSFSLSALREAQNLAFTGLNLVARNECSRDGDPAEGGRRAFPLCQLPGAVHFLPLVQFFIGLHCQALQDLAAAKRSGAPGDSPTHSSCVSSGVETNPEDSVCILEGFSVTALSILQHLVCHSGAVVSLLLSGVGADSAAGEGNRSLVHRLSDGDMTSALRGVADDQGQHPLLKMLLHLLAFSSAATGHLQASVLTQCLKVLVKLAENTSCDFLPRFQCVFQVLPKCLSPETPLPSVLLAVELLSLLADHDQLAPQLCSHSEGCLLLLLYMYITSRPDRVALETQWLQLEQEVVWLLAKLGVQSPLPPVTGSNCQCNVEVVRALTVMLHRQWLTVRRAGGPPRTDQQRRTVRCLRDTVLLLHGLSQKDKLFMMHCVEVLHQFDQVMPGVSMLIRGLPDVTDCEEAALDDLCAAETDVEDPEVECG

| IC50 ([1]; 96 h) [nM] | IC50 ([2]; 120 h) [nM] | IC50 [3] [nM] | IC50 [2] [nM] | IC50 [1] [nM] | Structure (SMILES) |
| --- | --- | --- | --- | --- | --- |
| 20 to 100 | – | – | – | – | C[C@@H]1COCCN1c1cc(C2(O)CCC3(CC2)CO3)c2cnn(-c3cc[nH]n3)c2n1 (stereo partly drawn) [Compound 2, (R)-6-(6-(3-methylmorpholinyl)-1-(1H-pyrazol-3-yl)-1H-pyrazole[3,4-b]pyridin-4-yl)-1-oxaspiro[2.5]octan-6-ol] |
| ≤ 20 | – | – | – | – | COCC#Cc1cc(N2CCOC[C@H]2C)nc2c1cnn2-c1cc[nH]n1 [Compound 5, (R)-4-(4-(3-methoxypropyl-1-alkynyl)-1-(1H-pyrazol-3-yl)-1H-pyrazole[3,4-b]pyridin-6-yl)-3-methylmorpholine] |
| 20 to 100 | 10 to 100 | – | – | – | C[C@@H]1COCCN1c1cc(-c2ccc(N3CCCCC3=O)cc2)c2cnn(-c3cc[nH]n3)c2n1 [Compound 7, (R)-1-(4-(6-(3-methylmorpholinyl)-1-(1H-pyrazolyl-3-yl)-1H-pyrazolyl[3,4-b]pyridin-4-yl)phenyl)piperidin-2-one] |
| 20 to 100 | – | – | – | – | C[C@@H]1COCCN1c1cc(C2CCCOC2)c2cnn(-c3cc[nH]n3)c2n1 (stereo partly drawn) [Compound 13, (3R)-4-(1-(1H-pyrazol-3-yl)-4-(tetrahydro-2H-pyran-3-yl)-1H-pyrazole[3,4-b]pyridin-6-yl)-3-methylmorpholine] |
| 20 to 100 | 10 to 100 | – | – | – | C[C@@H]1COCCN1c1cc(-c2ccc(NC(=O)c3cccc(S(C)(=O)=O)c3)cc2)c2cnn(-c3cc[nH]n3)c2n1 [Example 145] |
| ≤ 20 | ≤ 10 | ≤ 10 | – | – | C#CC1CCC(O)(c2cc(N3CCOC[C@H]3C)nc3c2cnn3-c2cc[nH]n2)CC1 (stereo partly drawn) [Example 147, (R)-4-ethynyl-1-(6-(3-methylmorpholinyl)-1-(1H-pyrazolyl-3-yl)-1H-pyrazolyl[3,4-b]pyridin-4-yl)cyclohexanol] |
| – | – | ≤ 10 | 10 to 100 | 20 to 100 | C[C@@H]1COCCN1c1cc(-c2ccc(NC(=O)c3ccncc3)cc2)c2cnn(-c3cc[nH]n3)c2n1 [Example 148] |
| – | – | ≤ 10 | 10 to 100 | 20 to 100 | C[C@@H]1COCCN1c1cc(-c2ccc(NC(=O)c3cocn3)cc2)c2cnn(-c3cc[nH]n3)c2n1 [Example 164] |
| 20 to 100 | 10 to 100 | – | – | – | C[C@@H]1COCCN1c1cc(-c2ccc(N3CCCCCC3=O)cc2F)c2cnn(-c3cc[nH]n3)c2n1 [Example 197] |
| 20 to 100 | ≤ 10 | ≤ 10 | – | – | C[C@@H]1COCCN1c1cc(-c2ccc(NC(=O)N3CCCC3)c(C#N)c2)c2cnn(-c3cc[nH]n3)c2n1 [Example 228] |
| 20 to 100 | 10 to 100 | ≤ 10 | – | – | C[C@@H]1COCCN1c1cc(-c2ccc(NC(=O)c3cocn3)cc2F)c2cnn(-c3cc[nH]n3)c2n1 [Example 235] |
| 20 to 100 | 10 to 100 | ≤ 10 | – | – | C[C@@H]1COCCN1c1cc(-c2ccc(N3CCCCS3(=O)=O)cc2F)c2cnn(-c3cc[nH]n3)c2n1 [Example 239] |
| – | 10 to 100 | ≤ 10 | – | – | C[C@@H]1COCCN1c1cc(-c2c(F)cc(N3CCCCC3=O)cc2F)c2cnn(-c3cc[nH]n3)c2n1 [Example 240] |
| – | 10 to 100 | ≤ 10 | – | – | CC1CCCN(c2cc(F)c(-c3cc(N4CCOC[C@H]4C)nc4c3cnn4-c3cc[nH]n3)c(F)c2)C1=O (stereo partly shown) [Example 241] |
| – | 10 to 100 | ≤ 10 | – | – | C[C@@H]1COCCN1c1cc(-c2ccc(N3CC=CCC3=O)cc2F)c2cnn(-c3cc[nH]n3)c2n1 [Example 243] |
| – | 10 to 100 | ≤ 10 | – | – | C[C@@H]1COCCN1c1cc(-c2ccc(NC(=O)N3CCCCC3)c(F)c2)c2cnn(-c3cc[nH]n3)c2n1 [Example 244] |

| IC50 ([1]; 96 h) [nM] | IC50 ([2]; 120 h) [nM] | IC50 [3] [nM] | IC50 [2] [nM] | IC50 [1] [nM] | Structure (SMILES) |
| --- | --- | --- | --- | --- | --- |
| – | 10 to 100 | ≤ 10 | – | – | C[C@@H]1COCCN1c1cc(-c2ccc(NC(=O)N3CCCC3)cc2F)c2cnn(-c3cc[nH]n3)c2n1 [Example 245] |
| – | 10 to 100 | ≤ 10 | – | – | CC1CCCN1C(=O)Nc1ccc(-c2cc(N3CCOC[C@H]3C)nc3c2cnn3-c2cc[nH]n2)cc1 (stereo partly shown) [Example 246] |
| – | 10 to 100 | ≤ 10 | – | – | C[C@@H]1COCCN1c1cc(-c2ccc(NC(=O)N3CCCC3)nc2)c2cnn(-c3cc[nH]n3)c2n1 [Example 250] |
| – | 10 to 100 | ≤ 10 | – | – | Cc1cc(NC(=O)N2CCCC2)cc(C)c1-c1cc(N2CCOC[C@H]2C)nc2c1cnn2-c1cc[nH]n1 [Example 251] |
| – | 10 to 100 | ≤ 10 | – | – | Cc1cc(N2CC3CCC(O3)C2=O)ccc1-c1cc(N2CCOC[C@H]2C)nc2c1cnn2-c1cc[nH]n1 (stereo partly shown) [Example 254] |
| – | 10 to 100 | ≤ 10 | – | – | C[C@@H]1COCCN1c1cc(-c2ccc(N3CC4CCC(O4)C3=O)nc2)c2cnn(-c3cc[nH]n3)c2n1 (stereo partly shown) [Example 255] |
| – | 10 to 100 | ≤ 10 | – | – | Cc1cc(-c2cc(N3CCOC[C@H]3C)nc3c2cnn3-c2cc[nH]n2)ccc1N1CC2CCC(O2)C1=O (stereo partly shown) [Example 256] |
| – | 10 to 100 | ≤ 10 | – | – | C[C@@H]1COCCN1c1cc(-c2cnc(N3CC4CCC(O4)C3=O)cc2F)c2cnn(-c3cc[nH]n3)c2n1 (stereo partly shown) [Example 257] |
| – | 10 to 100 | ≤ 10 | – | – | C[C@@H]1COCCN1c1cc(-c2cc(NC(=O)C3CC3)on2)c2cnn(-c3cc[nH]n3)c2n1 [Example 260] |
| 20 to 100 | 10 to 100 | ≤ 10 | – | – | C[C@@H]1COCCN1c1cc(-c2c(F)cc(N3CC4CCC(O4)C3=O)cc2F)c2cnn(-c3cc[nH]n3)c2n1 (stereo partly shown) [Example 261] |
| – | 10 to 100 | ≤ 10 | – | – | C[C@@H]1COCCN1c1cc(-c2ccc(N3C(=O)C4C=CC3C4)cc2F)c2cnn(-c3cc[nH]n3)c2n1 (stereo partly shown) [Example 262] |
| – | 10 to 100 | ≤ 10 | – | – | C[C@@H]1COCCN1c1cc(-c2ccc(N3C(=O)C4CCC3C4)cc2F)c2cnn(-c3cc[nH]n3)c2n1 (stereo partly shown) [Example 263] |
| – | 10 to 100 | ≤ 10 | – | – | C[C@@H]1COCCN1c1cc(-c2ccc(N3C(=O)C4CCC3CC4)cc2F)c2cnn(-c3cc[nH]n3)c2n1 [Example 264] |
| – | 10 to 100 | 10 to 50 | – | – | C[C@@H]1COCCN1c1cc(N2CC(NC(=O)C3CCC3)C2)c2cnn(-c3cc[nH]n3)c2n1 [Example 265] |
| 20 to 100 | 10 to 100 | ≤ 10 | – | – | C[C@@H]1COCCN1c1cc(C2(O)CCC(C#N)CC2)c2cnn(-c3cc[nH]n3)c2n1 (stereo partly shown) [RP103, reference compound] |
